{"source": "patent US20200316159A1", "about": "“SUSTAINED RELEASE COMPOSITIONS OF KAPPA-OPIOID RECEPTOR AGONIST” (JT PHARMACEUTICALS, INC., priority 2016, published 2020)", "key": {"[1]": {"tested_on": "peripheral pain (acetic acid-induced writhing)", "test": "Acetic acid-induced writhing model (Example 1)", "assay_type": "in vivo, rat (male Sprague-Dawley)", "procedure": "Acetic Acid-Induced Writhing Model.\nThis protocol is a well-established model of peripheral pain. Following oral or i.v. administration of compound, rats are rested for 20 min before i.p. injection with 2 ml/kg of 3% acetic acid. Animals are then rested an additional 10 min before being placed in a 10×10 inch chamber. A video of the rats is then recorded for next 20 min. The video is subsequently blindly scored by an investigator who examines each rat every 20 sec for the entire 20 min (60 individual observations). At each observation rats are scored on whether they are writhing or not. Writhing is defined as a constriction of the abdominal area, often with extension of the hind legs. At the end of the experiment the percent of the time the animal was writhing was calculated. The dose-response curves and EC50 values were generated using GraphPad Prism®.\nAs an initial biological screen the potential for oral availability of the 18 peptides in our library were evaluated in a well-established model of peripheral pain, the acetic acid-induced writhing assay. Rats were administered the various compounds by oral gavage at a screening dose of 20 mg/kg 20 min before i.p. injection with 2 ml/kg of 3% acetic acid. 10 min later animals were assessed for writhing as indicated in the methods section. […] Thus, several of the Arg modifications can impart CR665 with the ability to cross the gut barrier. Compounds 3, 7, 9, 11 and 17 were selected for further analysis."}, "[2]": {"target": "kappa opioid receptor (Homo sapiens, UniProt P41145)", "sequence (P41145 whole entry, the tested form may be a part)": "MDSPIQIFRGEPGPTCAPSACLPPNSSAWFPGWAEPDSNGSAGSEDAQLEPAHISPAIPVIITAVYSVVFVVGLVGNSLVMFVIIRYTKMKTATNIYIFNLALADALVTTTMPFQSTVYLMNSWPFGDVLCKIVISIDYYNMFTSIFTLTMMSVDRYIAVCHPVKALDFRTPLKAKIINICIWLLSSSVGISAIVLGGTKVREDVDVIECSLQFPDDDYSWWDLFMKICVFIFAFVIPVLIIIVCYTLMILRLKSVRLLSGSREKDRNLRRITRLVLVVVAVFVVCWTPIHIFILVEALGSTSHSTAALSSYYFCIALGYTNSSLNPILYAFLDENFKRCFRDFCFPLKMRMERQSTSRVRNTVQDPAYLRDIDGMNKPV", "test": "Opioid receptor activation assay, DiscoveRx PathHunter Beta-Arrestin, kappa", "assay_type": "cell-based", "source_text": "Opioid Receptor Activation Assay.\nPathHunter™ Beta-Arrestin GPCR Functional Profiling and Screening cell lines that express the individual opioid receptors were obtained from DiscoveRx (Fremont, Calif.). These cells express the kappa (or mu or delta) opioid receptor fused to a proprietary β-galactosidase enzyme fragment and the […]-arrestin gene fused to an enzyme acceptor (the remaining fragment of β-galactosidase). Upon activation of the receptor, β-arrestin is recruited to the GPCR and the β-galactosidase is activated through enzyme complementation. Cells were grown using standard cell culture techniques and then plated at 30,000 cells/well in 90 μl in a 96 well white, clear bottom plate and incubated overnight. Dilutions were prepared in dilution buffer (HBBS, 20 mMHepes, 0.1% BSA) and 10 μl added per well. Plates were then incubated for 90 min at 37° C. in a water-saturated atmosphere. Plates were then allowed to come to room temp and DiscoveRx's proprietary developing agent added as recommended by the manufacturer. This agent contains a detergent, 6-O-β-galactopyranosyl-luciferen and luciferase. Plates were then incubated for 1 hr at room temperature before being read on a luminometer. Antagonist studies were performed in an identical manner except after the overnight incubation 10 μl media was removed and replaced with drug or naloxone at the indicated concentration. […] To calculate % maximal luminescence, background was subtracted from the experimental values and this was divided by maximal luminescence and multiplied by 100.\nTo confirm this, and to determine their relative activities, we assessed their efficiency using PathHunter™ Beta-Arrestin GPCR Functional Profiling and Screening cell lines from DiscoveRx (Fremont, Calif.) as described in the Materials and Methods section."}, "[3]": {"tested_on": "abuse liability (lever pressing for intravenous drug delivery)", "test": "Self-administration model", "assay_type": "in vivo, rat", "source_text": "Self-Administration Model.\nAddiction/dependence is a critical side effect of opioids and must be evaluated with any new member of this family. The most reliable test of abuse liability with the most translational relevance is a contingent drug self-administration model, in which rats are trained to press a lever for intravenous drug delivery. Sixteen standard self-administration chambers (30×20×20 cm, Med Associates) were housed inside sound-attenuating cubicles fitted with a fan for airflow and to mask noise. Each chamber contained two retractable levers, two stimulus lights, a speaker for tone delivery, and a house light to provide general illumination. In addition, each chamber was equipped with a balanced metal arm and spring leash attached to a swivel (Instech). Tygon® tubing extended through the leash and was connected to a 10 ml syringe mounted on an infusion pump located outside the sound-attenuating cubicle. Rats were anesthetized with i.p. injections of ketamine (66 mg/kg; Vedcolnc, St Joseph, Mo., USA), xylazine (1.3 mg/kg; Lloyd Laboratories, Shenandoah, Iowa, USA), and equithesin (0.5 ml/kg); sodium pentobarbital (4 mg/kg), chloral hydrate (17 mg/kg), and 21.3 mg/kg magnesium sulfate heptahydrate dissolved in 44% propylene glycol, 10% ethanol solution). Ketorolac (2.0 mg/kg, i.p. Sigma, St. Louis, Mo., USA) was given just prior to surgery as an analgesic. One end of a silastic catheter was inserted 33 mm into the external right jugular and secured with 4.0 silk sutures. The other end ran subcutaneously and exited from a small incision just below the scapula. This end is attached to an infusion harness (Instech Solomon, Plymouth Meeting, Pa., USA) that provides access to an external port for IV drug delivery. […]\nDuring self-administration, rats received an IV infusion (0.1 ml) of 10 U/ml heparinized saline before each session. […] Cocaine was chosen for comparison purposes because it is readily self-administered."}, "[4]": {"tested_on": "sedation (distance traveled)", "test": "Locomotor open field test", "procedure": "Locomotor Open Field Test.\nSedation and a loss of muscle coordination are common CNS-mediated side effects of opioids. To assess the sedative effects of JT09, rats were given JT09 (20 mg/kg, p.o.) or morphine (10 mg/kg, i.p.) 20 min before placement in an automated (68 l×21 w×21 h cm) activity chambers for a 30 min test. Morphine was used as a comparison group due to its well-known sedative effects."}, "[5]": {"test": "Multiple dose study (14 days)", "assay_type": "in vivo, rat", "conditions": "30 mg/kg oral daily for 14 days", "source_text": "Tolerance to the analgesic effects of the lead compounds was be assessed using the acetic acid-induced writhing assay (described above). Daily clinical observations for behavioral toxicity (described above) were made during the course of the experiment and body weight and food consumption recorded on study days 3, 5, 7, 9, 11 and 13. On day 15, animals were sacrificed in their home cages by carbon dioxide inhalation from a compressed gas tank. A gross necroscopic analysis was immediately performed following euthanasia."}}, "data": [{"smiles": "CCCC[C@@H](NC(=O)[C@@H](Cc1ccccc1)NC(=O)[C@H](N)Cc1ccccc1)C(=O)N[C@H](CCCCN(C)C)C(=O)NCc1ccncc1", "note": "[Compound 9]", "values": [{"measurement": "EC50, i.v. dose response in writhing assay", "setting": "[1]; i.v.", "result": 0.032, "unit": "mg/kg"}, {"measurement": "EC50, oral dose-response in acetic acid writhing model", "setting": "[1]; oral", "result": 4.7, "unit": "mg/kg"}, {"measurement": "EC50, activation of kappa opioid receptor", "setting": "[2]; PathHunter Beta-Arrestin", "result": "low nM range"}, {"measurement": "EC50", "setting": "[2]; PathHunter Beta-Arrestin, 3-6 repeats, read-out: 95% confidence levels of EC50, activation of kappa receptors", "result": "0.0153 to 0.0545", "unit": "µM"}, {"measurement": "agonist selectivity for kappa over both mu- and delta-opioid receptors", "setting": "[2]; minimal estimate", "result": "> 33,400"}, {"measurement": "lever responding in operant self-administration", "setting": "[3]; IV infusion 20 mg/kg/inf, 2-hr sessions, five-day period, n=8", "result": "failed to maintain lever responding"}, {"measurement": "number of infusions in self-administration", "setting": "[3]; JT09 IV, days 2-5 compared to day one", "result": "decreased on all 4 days"}, {"measurement": "locomotor activity (distance traveled) versus saline", "setting": "[4]; 20 mg/kg p.o., 30 min test", "result": "statistically indistinguishable"}, {"measurement": "locomotor activity relative to morphine", "setting": "[4]; JT09 20 mg/kg p.o. versus morphine 10 mg/kg i.p., time bins 1, 2 and 5", "result": "higher locomotor activity"}, {"measurement": "sedation in locomotor test", "setting": "[4]; JT09 20 mg/kg p.o., morphine 10 mg/kg i.p.", "result": "showed no sedation"}, {"measurement": "tolerance (negative CNS-mediated effects associated with morphine)", "setting": "[5]", "result": "does not promote"}, {"measurement": "gross necropsy: heart, stomach, intestines, liver, spleen, pancreas, kidneys, adrenal glands, skeletal muscle, bone, reproductive organs, brain", "setting": "[5]; six rats", "result": "grossly normal"}, {"measurement": "gross necropsy: lungs", "setting": "[5]; attributed to CO2 euthanasia hemorrhage", "result": "slight grey discoloration"}]}]}
